Data set [1] has as its target D(2) dopamine receptor (Homo sapiens) (UniProt P14416). As to the kind of experiment: […] D2 duration was determined using electrically stimulated guinea-pig isolated trachea superfusion system. Conditions: Cavia porcellus, target entry is the homologue from another species. The data set is classed as functional.
For data set [2] the following is noted: octanol/water, pH 7.4.
Data set [3] is described as follows: physchem.
Description: (§1) Classification of ionization constant (pKa)
The target in data set [4] is Beta-2 adrenergic receptor (Cavia porcellus) (UniProt Q8K4Z4). Particulars: Trachea.
Description: Beta-2-adrenoceptor potency was determined in rings of guinea-pig isolated trachea
Data set [5] can be described thus: physchem. Particulars: octanol/water, pH 7.4, logD.
Data set [6] is described as follows: physchem. This is another data set of the same source.
Description: Ionization constant (pKa)
In data set [7] the target is Beta-2 adrenergic receptor (Cavia porcellus) (UniProt Q8K4Z4).
Description: In vitro beta-2 duration was determined using electrically stimulated guinea-pig isolated trachea superfusion system
Data set [8] is described as follows: physchem. This is another data set of the same source.
Description: as §1

Structures are written as SMILES. Several values for one entry are separate records, joined by “and”; a condition that tells them apart may be missing. Equal entries are not always repeated.

The logD is the decadic logarithm of the distribution of all forms, ionised or not, between an organic phase and buffer at a given pH. The pKa is the pH at which an ionisable group is half protonated. Higher therefore signals a weaker acid or stronger base.

Chain of Beta-2 adrenergic receptor (Cavia porcellus) (Q8K4Z4 whole entry, looked up): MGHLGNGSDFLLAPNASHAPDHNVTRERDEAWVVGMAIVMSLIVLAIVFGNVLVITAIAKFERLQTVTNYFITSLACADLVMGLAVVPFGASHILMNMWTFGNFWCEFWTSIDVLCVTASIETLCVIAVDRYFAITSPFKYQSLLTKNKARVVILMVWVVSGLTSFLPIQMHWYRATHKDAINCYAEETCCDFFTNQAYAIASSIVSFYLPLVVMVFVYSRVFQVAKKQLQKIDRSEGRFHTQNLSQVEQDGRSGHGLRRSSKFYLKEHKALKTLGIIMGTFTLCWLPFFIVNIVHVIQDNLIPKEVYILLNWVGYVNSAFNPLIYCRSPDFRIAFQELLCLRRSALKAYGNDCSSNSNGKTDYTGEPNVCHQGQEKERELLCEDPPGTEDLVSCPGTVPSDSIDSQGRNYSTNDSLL
Chain of D(2) dopamine receptor (Homo sapiens) (P14416 whole entry, the tested form may be a part): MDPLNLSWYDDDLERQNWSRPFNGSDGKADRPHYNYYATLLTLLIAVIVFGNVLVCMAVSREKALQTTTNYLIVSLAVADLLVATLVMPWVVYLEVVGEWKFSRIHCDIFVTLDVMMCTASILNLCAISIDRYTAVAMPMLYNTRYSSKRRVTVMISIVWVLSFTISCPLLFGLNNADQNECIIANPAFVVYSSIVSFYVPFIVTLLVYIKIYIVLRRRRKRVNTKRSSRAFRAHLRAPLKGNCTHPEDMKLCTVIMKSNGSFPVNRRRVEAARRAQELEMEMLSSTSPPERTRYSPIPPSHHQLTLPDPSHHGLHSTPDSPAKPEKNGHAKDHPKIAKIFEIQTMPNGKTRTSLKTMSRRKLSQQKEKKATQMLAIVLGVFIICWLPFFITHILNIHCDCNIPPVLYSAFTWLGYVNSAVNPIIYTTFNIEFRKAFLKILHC

As for `O=c1[nH]c2c(O)ccc(CCNCCCSCCOCCc3ccccc3)c2s1`, the D2 duration in data set [1] came out at 270 min. For the same compound, the logD in data set [2] is 3.53; in “physchem [5]” it was 2.31. Further, the pKa in “physchem [3]” is 10.2; in “physchem [6]”, greater than 8. In data set [4], this compound returned a p[A]50 of 8.02. Besides, the Beta2 duration in data set [7] is greater than 180 min.
For the compound `Oc1nc2c(O)ccc(CCNCCCOCCOCCc3ccccc3)c2s1`, the results for the pKa in the data set “physchem [8]”, in the data set “physchem [3]” and in “physchem [6]” were 7.65, 9.23 and greater than 8, respectively. In addition, the p[A]50 in data set [4] was found to be 8.82. Moreover, the logD in the data set “physchem [5]” turned out to be 1.19. In data set [7], the Beta2 duration was greater than 180 min.
Compound `CN(CCCS(=O)(=O)CCOCCc1ccccc1)CCc1ccc(O)c2nc(O)sc12` came in with a D2 duration in data set [1] of 150 min.
In data set [1], `Oc1nc2c(O)ccc(CCNCCCCCCOCCc3ccccc3)c2s1` had a D2 duration of 270 min. In addition, the p[A]50 in data set [4] came to 8.23. Moreover, the logD in “physchem [5]” was found to be 2.73. In addition, the pKa in the data set “physchem [6]” was greater than 8. For the same compound, in data set [7], the Beta2 duration is greater than 180 min.
`O=S(=O)(CCCNCCc1ccc(O)c2nc(O)sc12)CCOCCc1ccccc1` gave a D2 duration in data set [1] of 270 min. Also, the pKa was 7.35 in the data set “physchem [8]”, 9.07 in “physchem [3]” and greater than 8 in the data set “physchem [6]”. This compound displayed a p[A]50 in data set [4] of 7.93. For the same compound, the log distribution coefficient (logD) in the data set “physchem [5]” was 1.37. Moreover, the Beta2 duration in data set [7] turned out to be 140 min.
In turn, `O=C(CCOCCc1ccccc1)NCCNCCc1ccc(O)c2nc(O)sc12` came in with a D2 duration in data set [1] of 150 min. Besides, the pKa was 7.62 in the data set “physchem [8]”, 8.75 in the data set “physchem [3]” and greater than 8 in “physchem [6]”. Further, the p[A]50 in data set [4] came out at 9.27. In addition, in the data set “physchem [5]”, the logD was 1.34. The same compound yielded a Beta2 duration in data set [7] of 57 min.
In turn, `O=C(CCCCCNCCc1ccc(O)c2nc(O)sc12)NCCc1ccccc1` had a D2 duration in data set [1] of 90 min. Besides, the p[A]50 in data set [4] worked out at 7.18. This compound also displayed a logD in the data set “physchem [5]” of 1.29. This compound displayed a pKa in the data set “physchem [6]” greater than 8. The Beta2 duration in data set [7] is 22 min.
As to `O=c1[nH]c2c(O)ccc(CCNCCCS(=O)(=O)CCCOCCc3ccccc3)c2s1`, in data set [1], the D2 duration was 270 min. Further, the values for the logD (in data set [2]; in the data set “physchem [5]”) were 1.34 and 1.65, respectively. For the same compound, the p[A]50 in data set [4] came out at 8.24. Also, in “physchem [6]”, the pKa is greater than 8. In data set [7], the Beta2 duration was 172 min and 80 min.
As to `O=c1[nH]c2c(O)ccc(CCNCCS(=O)(=O)CCCOCCc3ccccc3)c2s1` [SIBENADET], the pKa in the data set “physchem [8]” was 8.55; in the data set “physchem [3]” it was 6.58; in “physchem [6]” it was less than 8. The compound also showed a p[A]50 in data set [4] of 8.09. In “physchem [5]”, this compound had a logD of 2.51. In data set [7], the Beta2 duration was determined as 146 min.
Take `Oc1nc2c(O)ccc(CCNCCOCCCOCCc3ccccc3)c2s1`: the pKa in “physchem [8]” was 7.55; in the data set “physchem [3]”, 8.68; in the data set “physchem [6]” it was greater than 8. Also, the p[A]50 in data set [4] was determined as 7.16. This compound also came in with a logD in the data set “physchem [5]” of 2.06. In data set [7], the Beta2 duration is greater than 1080 min.
With `O=S(=O)(CCOCCc1ccccc1)NCCNCCc1ccc(O)c2nc(O)sc12`, the values for the pKa in the data set “physchem [8]”, in “physchem [3]” and in the data set “physchem [6]” were 7.5, 8.58 and greater than 8, respectively. For the same compound, in data set [4], the p[A]50 was 7.39. This compound had a logD in “physchem [5]” of 1.56. The same compound yielded a Beta2 duration in data set [7] of 135 min.
Turning to `O=S(=O)(CCCNCCc1ccc(O)c2nc(O)sc12)CCSCCc1ccccc1`, the p[A]50 in data set [4] came out at 7.57. The logD in the data set “physchem [5]” was determined as 2.34. The pKa in the data set “physchem [6]” was greater than 8. Moreover, the Beta2 duration in data set [7] is greater than 180 min.
In data set [4], `Oc1nc2c(O)ccc(CCNCCCOCCSCCc3ccccc3)c2s1` registered a p[A]50 of 7.03. In addition, the logD in “physchem [5]” was 1.73. In addition, the pKa in “physchem [6]” was greater than 8. In data set [7], this compound gave a Beta2 duration greater than 180 min.
Regarding `NC(=O)c1ccc(CCOCCCS(=O)(=O)CCNCCc2ccc(O)c3nc(O)sc23)cc1`, in data set [4], the p[A]50 was 7.54. This compound gave a logD in “physchem [5]” of 1.1. The pKa in “physchem [6]” is less than 8. The same compound registered a Beta2 duration in data set [7] of 50 min.
